Test results published in US12258327B2, “5-membered heteroaryl-containing aminopyridine compounds as EGFR inhibitors” (YUHAN CORPORATION, priority 2021, dated 2025).
pIC50: −log10 of the molar value. Where two headings read alike, the source gives them in different places.

How the values were obtained:
[1] = biological target: EGFR del19/T790M/C797S (Homo sapiens, UniProt P00533, C797S/DEL746-750/T790M); assay: Biochemical EGFR kinase assay (Lance Ultra TR-FRET), triple mutant del19/T790M/C797S
EGFR del19/T790M/C797S, sequence (P00533 with tags, fused parts or gaps DEL746-750/T790M/C797S): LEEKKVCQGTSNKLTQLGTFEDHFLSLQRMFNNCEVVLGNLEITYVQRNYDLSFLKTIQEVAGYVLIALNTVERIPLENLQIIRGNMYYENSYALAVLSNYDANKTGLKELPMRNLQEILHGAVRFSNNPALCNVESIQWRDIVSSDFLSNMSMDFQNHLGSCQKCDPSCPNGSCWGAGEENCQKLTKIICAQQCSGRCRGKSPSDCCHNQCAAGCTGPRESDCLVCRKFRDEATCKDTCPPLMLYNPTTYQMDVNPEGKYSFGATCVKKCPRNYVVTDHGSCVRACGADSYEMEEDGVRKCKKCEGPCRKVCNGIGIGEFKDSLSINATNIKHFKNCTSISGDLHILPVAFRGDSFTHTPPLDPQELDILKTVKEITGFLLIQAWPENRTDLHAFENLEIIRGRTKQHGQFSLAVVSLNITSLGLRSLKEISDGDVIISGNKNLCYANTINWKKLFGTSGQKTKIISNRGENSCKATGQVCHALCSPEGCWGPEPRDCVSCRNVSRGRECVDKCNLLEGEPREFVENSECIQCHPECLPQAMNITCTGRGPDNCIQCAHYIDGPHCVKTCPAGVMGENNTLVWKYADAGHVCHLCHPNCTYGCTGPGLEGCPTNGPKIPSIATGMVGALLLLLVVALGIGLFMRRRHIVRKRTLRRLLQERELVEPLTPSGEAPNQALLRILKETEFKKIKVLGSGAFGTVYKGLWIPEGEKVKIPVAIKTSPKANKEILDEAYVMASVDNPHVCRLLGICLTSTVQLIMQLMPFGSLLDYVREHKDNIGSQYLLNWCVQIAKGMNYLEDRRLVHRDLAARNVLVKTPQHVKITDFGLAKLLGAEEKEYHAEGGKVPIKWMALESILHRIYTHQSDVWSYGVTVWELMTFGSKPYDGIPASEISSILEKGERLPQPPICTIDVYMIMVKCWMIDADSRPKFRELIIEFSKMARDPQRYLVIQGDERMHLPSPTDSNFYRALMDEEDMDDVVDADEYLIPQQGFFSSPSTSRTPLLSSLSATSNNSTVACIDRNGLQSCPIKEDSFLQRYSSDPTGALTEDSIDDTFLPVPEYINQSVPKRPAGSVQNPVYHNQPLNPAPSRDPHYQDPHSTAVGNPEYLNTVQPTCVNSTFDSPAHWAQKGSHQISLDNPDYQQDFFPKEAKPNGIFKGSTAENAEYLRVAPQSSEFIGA
In short: (§1)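 Kinase activity is measured by TR-FRET phosphopeptide detection. Compounds span 0.003 μM to 10 μM; the 1 h reaction at room temperature is quenched with EDTA, then labelled antibody (2 nM) is incubated 60 min before reading.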

[2] = biological target: EGFR L858R/T790M/C797S (Homo sapiens, UniProt P00533, C797S/L858R/T790M); assay: Biochemical EGFR kinase assay (Lance Ultra TR-FRET), triple mutant L858R/T790M/C797S
In short: as §1

[3] = biological target: EGFR del19/C797S (Homo sapiens, UniProt P00533, C797S/DEL746-750); assay: Biochemical EGFR kinase assay (Lance Ultra TR-FRET), double mutant del19/C797S
EGFR del19/C797S, sequence (P00533 with tags, fused parts or gaps DEL746-750/C797S): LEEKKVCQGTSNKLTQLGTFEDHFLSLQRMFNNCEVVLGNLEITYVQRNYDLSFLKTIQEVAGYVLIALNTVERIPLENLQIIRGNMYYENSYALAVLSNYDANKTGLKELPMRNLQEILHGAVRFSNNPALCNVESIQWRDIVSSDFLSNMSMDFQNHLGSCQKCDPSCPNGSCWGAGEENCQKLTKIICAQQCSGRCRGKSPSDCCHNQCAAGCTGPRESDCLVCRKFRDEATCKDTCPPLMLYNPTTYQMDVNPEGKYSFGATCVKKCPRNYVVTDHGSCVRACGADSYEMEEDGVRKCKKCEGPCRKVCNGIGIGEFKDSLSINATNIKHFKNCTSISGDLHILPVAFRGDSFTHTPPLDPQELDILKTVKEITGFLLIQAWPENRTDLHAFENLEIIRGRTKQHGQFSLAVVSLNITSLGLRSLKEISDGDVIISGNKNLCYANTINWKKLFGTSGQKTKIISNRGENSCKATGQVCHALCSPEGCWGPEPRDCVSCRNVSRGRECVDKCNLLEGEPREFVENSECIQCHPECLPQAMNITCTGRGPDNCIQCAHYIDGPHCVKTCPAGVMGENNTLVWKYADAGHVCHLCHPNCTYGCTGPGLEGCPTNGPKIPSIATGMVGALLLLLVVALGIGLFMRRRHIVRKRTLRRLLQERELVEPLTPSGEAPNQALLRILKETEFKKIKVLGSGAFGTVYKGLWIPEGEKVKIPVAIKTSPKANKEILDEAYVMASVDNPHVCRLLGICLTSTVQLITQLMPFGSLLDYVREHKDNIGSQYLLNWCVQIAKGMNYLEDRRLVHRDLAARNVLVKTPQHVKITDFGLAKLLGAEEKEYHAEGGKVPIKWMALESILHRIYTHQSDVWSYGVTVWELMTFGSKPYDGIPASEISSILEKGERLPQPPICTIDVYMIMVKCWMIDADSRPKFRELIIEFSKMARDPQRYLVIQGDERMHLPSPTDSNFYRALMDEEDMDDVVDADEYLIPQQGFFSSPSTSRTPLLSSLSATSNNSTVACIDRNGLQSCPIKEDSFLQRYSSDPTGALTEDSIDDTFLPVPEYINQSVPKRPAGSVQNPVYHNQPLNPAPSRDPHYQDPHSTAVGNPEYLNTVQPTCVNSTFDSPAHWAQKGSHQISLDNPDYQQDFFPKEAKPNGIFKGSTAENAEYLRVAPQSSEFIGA
In short: as §1

[4] = biological target: EGFR L858R/C797S (Homo sapiens, UniProt P00533, C797S/L858R); assay: Biochemical EGFR kinase assay (Lance Ultra TR-FRET), double mutant L858R/C797S
EGFR L858R/C797S, sequence (P00533 25-1210 C797S/L858R): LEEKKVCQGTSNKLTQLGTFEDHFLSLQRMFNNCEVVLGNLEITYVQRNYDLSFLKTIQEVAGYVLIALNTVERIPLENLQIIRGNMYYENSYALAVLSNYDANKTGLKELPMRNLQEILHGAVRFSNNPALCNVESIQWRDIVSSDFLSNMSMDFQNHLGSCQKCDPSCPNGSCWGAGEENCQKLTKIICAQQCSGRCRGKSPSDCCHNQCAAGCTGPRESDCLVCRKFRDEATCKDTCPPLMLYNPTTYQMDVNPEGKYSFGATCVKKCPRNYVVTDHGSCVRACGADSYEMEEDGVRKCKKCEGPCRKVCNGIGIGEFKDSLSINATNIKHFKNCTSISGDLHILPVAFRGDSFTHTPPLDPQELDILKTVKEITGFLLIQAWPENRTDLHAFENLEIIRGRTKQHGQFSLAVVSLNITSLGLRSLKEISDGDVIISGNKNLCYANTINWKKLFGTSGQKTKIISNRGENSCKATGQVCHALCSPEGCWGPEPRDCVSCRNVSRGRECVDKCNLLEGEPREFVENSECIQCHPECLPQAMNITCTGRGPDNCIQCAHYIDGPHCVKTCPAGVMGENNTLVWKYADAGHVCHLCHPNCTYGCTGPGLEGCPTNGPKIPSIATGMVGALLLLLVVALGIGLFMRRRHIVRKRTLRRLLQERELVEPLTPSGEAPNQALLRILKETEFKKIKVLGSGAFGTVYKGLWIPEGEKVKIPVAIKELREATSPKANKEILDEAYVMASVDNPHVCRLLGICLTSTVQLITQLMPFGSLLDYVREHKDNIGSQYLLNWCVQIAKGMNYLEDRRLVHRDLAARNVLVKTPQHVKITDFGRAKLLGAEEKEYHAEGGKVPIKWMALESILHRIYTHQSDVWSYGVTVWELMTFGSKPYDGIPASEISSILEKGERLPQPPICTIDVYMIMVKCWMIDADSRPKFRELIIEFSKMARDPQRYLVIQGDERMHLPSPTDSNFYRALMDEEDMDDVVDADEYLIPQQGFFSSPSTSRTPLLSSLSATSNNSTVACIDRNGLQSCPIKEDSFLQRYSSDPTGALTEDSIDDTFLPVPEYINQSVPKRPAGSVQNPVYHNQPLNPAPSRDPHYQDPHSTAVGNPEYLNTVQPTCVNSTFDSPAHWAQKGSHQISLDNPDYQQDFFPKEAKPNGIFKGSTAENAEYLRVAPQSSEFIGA
In short: as §1

[5] = biological target: EGFR wildtype (WT) (Homo sapiens, UniProt P00533); assay: Biochemical EGFR kinase assay (Lance Ultra TR-FRET), wildtype
EGFR wildtype (WT), sequence (P00533 25-1210): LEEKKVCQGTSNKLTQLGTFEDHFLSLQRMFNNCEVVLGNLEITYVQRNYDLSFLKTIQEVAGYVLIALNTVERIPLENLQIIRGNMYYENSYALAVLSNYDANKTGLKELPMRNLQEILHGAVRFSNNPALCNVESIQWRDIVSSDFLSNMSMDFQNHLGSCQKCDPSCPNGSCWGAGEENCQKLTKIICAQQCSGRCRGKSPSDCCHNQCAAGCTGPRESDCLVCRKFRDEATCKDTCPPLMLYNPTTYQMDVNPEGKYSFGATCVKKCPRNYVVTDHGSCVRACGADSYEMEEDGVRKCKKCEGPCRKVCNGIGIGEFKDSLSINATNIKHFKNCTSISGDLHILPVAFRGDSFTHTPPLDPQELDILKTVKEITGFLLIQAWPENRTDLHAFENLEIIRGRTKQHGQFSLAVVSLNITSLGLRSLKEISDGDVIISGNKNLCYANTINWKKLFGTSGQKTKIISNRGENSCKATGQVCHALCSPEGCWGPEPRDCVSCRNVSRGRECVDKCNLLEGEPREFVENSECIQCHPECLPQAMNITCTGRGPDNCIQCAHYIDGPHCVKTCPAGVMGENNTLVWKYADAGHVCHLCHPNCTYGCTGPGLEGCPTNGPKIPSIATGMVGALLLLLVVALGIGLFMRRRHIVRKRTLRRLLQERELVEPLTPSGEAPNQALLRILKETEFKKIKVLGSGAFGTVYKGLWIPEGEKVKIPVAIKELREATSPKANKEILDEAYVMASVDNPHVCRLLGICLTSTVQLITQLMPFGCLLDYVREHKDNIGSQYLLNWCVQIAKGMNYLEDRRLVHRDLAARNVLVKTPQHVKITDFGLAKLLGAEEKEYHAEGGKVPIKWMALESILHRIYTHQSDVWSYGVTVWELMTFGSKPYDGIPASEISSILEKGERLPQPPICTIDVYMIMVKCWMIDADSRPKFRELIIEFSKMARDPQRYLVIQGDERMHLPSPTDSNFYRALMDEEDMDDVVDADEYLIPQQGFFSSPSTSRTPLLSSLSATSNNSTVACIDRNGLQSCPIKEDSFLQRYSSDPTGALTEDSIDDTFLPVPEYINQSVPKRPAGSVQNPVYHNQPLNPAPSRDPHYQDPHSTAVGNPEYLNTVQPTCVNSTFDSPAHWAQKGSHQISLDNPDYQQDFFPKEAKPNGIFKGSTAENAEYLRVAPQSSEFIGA
In short: as §1

[6] = Km ATP, read-out: IC50 del19/T790M/C797S (nM) Km ATP
[7] = Km ATP, read-out: IC50 L858R/T790M/C797S (nM) Km ATP
[8] = Km ATP, read-out: IC50 del19/C797S (nM) Km ATP
[9] = Km ATP, read-out: IC50 L858R/C797S (nM) Km ATP
[10] = Km ATP, read-out: IC50 WT (nM) Km ATP
[11] = IC50 del19/T790M/C797S (nM) 100 μM ATP, 100 μM ATP
[12] = IC50 L858R/T790M/C797S (nM) 100 μM ATP, 100 μM ATP
[13] = IC50 del19/C797S (nM) 100 μM ATP, 100 μM ATP
[14] = IC50 L858R/C797S (nM) 100 μM ATP, 100 μM ATP
[15] = IC50 WT (nM) 100 μM ATP, 100 μM ATP
[16] = Km ATP, read-out: IC50 del19/T790M/C797S, Km ATP
[17] = Km ATP, read-out: IC50 L858R/T790M/C797S, Km ATP
[18] = Km ATP, read-out: IC50 del19/C797S, Km ATP
[19] = Km ATP, read-out: IC50 L858R/C797S, Km ATP
[20] = Km ATP, read-out: IC50 WT, Km ATP

Row | SMILES | IC50 [1, 6] [nM] | IC50 [2, 7] [nM] | IC50 [3, 8] [nM] | IC50 [4, 9] [nM] | IC50 [5, 10] [nM] | IC50 [1, 11] [nM] | IC50 [2, 12] [nM] | IC50 [3, 13] [nM] | IC50 [4, 14] [nM] | IC50 [5, 15] [nM] | pIC50 [1, 16] | pIC50 [2, 17] | pIC50 [3, 18] | pIC50 [4, 19] | pIC50 [5, 20] | pIC50 ([1]; IC50 del19/T790M/C797S, 100 μM ATP) | pIC50 ([2]; IC50 L858R/T790M/C797S, 100 μM ATP) | pIC50 ([3]; IC50 del19/C797S, 100 μM ATP) | pIC50 ([4]; IC50 L858R/C797S, 100 μM ATP) | pIC50 ([5]; IC50 WT, 100 μM ATP)
1 | O=S(=O)(C1CC1)n1cc(-c2nccc(Nc3cc(NC[C@H]4CC[C@@H](O)C4)c(-c4ccn(CC(F)(F)F)n4)cn3)n2)cn1 [Example 268, (1R,3S)-3-(((2-((2-(1-(Cyclopropylsulfonyl)-1H-pyrazol-4-yl)pyrimidin-4-yl)amino)-5-(1-(2,2,2-trifluoroethyl)-1H-pyrazol-3-yl)pyridin-4-yl)amino)methyl)cyclopentan-1-ol] | 2.5 | 0.3 | 7.6 | 3.2 | 74.4 | 0.6 | 0.6 | 200 | 10.7 | > 10000 | – | – | – | – | – | – | – | – | – | –
2 | C[C@]1(O)CC[C@@H](Nc2cc(Nc3ccnc(Nc4ccnn4CC(F)F)n3)ncc2-c2ccn(C(F)F)n2)CC1 [Example 155, (1s,4s)-4-((2-((2-((1-(2,2-Difluoroethyl)-1H-pyrazol-5-yl)amino)pyrimidin-4-yl)amino)-5-(1-(difluoromethyl)-1H-pyrazol-3-yl)pyridin-4-yl)amino)-1-methylcyclohexan-1-ol] | 4.2 | 2.8 | 162 | 139 | 1100 | – | – | – | – | – | – | – | – | – | – | – | – | – | – | –
3 | O=S(=O)(C1CC1)n1cc(-c2nccc(Nc3cc(NC4CCCC(F)C4)c(-c4ccn(C(F)F)n4)cn3)n2)cn1 (centres unmarked) [Example 181, N^2-(2-(1-(Cyclopropylsulfonyl)-1H-pyrazol-4-yl)pyrimidin-4-yl)-5-(1-(difluoromethyl)-1H-pyrazol-3-yl)-N^4-(3-fluorocyclohexyl)pyridine-2,4-diamine] | 2.1 | 2.1 | 6.7 | 13.2 | 44.6 | – | – | – | – | – | – | – | – | – | – | – | – | – | – | –
4 | Cc1nn(CC(F)(F)F)cc1-c1nccc(Nc2cc(N[C@H]3CC[C@@](C)(O)CC3)c(-c3cc(C(F)(F)F)n(C)n3)cn2)n1 [Example 332, (1s,4s)-1-Methyl-4-((2-((2-(3-methyl-1-(2,2,2-trifluoroethyl)-1H-pyrazol-4-yl)pyrimidin-4-yl)amino)-5-(1-methyl-5-(trifluoromethyl)-1H-pyrazol-3-yl)pyridin-4-yl)amino)cyclohexan-1-ol] | – | – | – | – | – | – | – | – | – | – | 8.23 | 8.49 | 8.00 | 8.22 | 7.01 | – | – | – | – | –
5 | C[C@]1(O)CC[C@@H](Nc2cc(Nc3ccnc(-c4cnn(S(=O)(=O)C5CC5)c4)n3)ncc2-n2cccn2)CC1 [Example 376, (1s,4s)-4-((2-((2-(1-(Cyclopropylsulfonyl)-1H-pyrazol-4-yl)pyrimidin-4-yl)amino)-5-(1H-pyrazol-1-yl)pyridin-4-yl)amino)-1-methylcyclohexan-1-ol] | – | – | – | – | – | – | – | – | – | – | 9.70 | 10.00 | 8.22 | 7.96 | 6.84 | 9.40 | 9.05 | 8.10 | 6.90 | < 5.00
6 | CCC(C)Nc1cc(Nc2ccnc(-c3cnn(S(=O)(=O)C4CC4)c3)n2)ncc1-c1ccn(C(F)F)n1 (centres unmarked) [Example 210, N^4-(sec-Butyl)-N^2-(2-(1-(cyclopropylsulfonyl)-1H-pyrazol-4-yl)pyrimidin-4-yl)-5-(1-(difluoromethyl)-1H-pyrazol-3-yl)pyridine-2,4-diamine] | 1.7 | 1.3 | 70.5 | 6.5 | 90.5 | – | – | – | – | – | – | – | – | – | – | – | – | – | – | –

The next lines start with the values.

Row | IC50 [1, 6] [nM] | IC50 [2, 7] [nM] | IC50 [3, 8] [nM] | IC50 [4, 9] [nM] | IC50 [5, 10] [nM] | IC50 [1, 11] [nM] | IC50 [2, 12] [nM] | IC50 [3, 13] [nM] | IC50 [4, 14] [nM] | IC50 [5, 15] [nM] | pIC50 [1, 16] | pIC50 [2, 17] | pIC50 [3, 18] | pIC50 [4, 19] | pIC50 [5, 20] | pIC50 ([1]; IC50 del19/T790M/C797S, 100 μM ATP) | pIC50 ([2]; IC50 L858R/T790M/C797S, 100 μM ATP) | pIC50 ([3]; IC50 del19/C797S, 100 μM ATP) | pIC50 ([4]; IC50 L858R/C797S, 100 μM ATP) | pIC50 ([5]; IC50 WT, 100 μM ATP) | SMILES
7 | 0.4 | 0.3 | 47.3 | 16.9 | 184 | – | – | – | – | – | – | – | – | – | – | – | – | – | – | – | Cc1nn(C)c(F)c1-c1nccc(Nc2cc(N[C@H]3CC[C@@](C)(O)CC3)c(-c3ccn(C(F)F)n3)cn2)n1 [Example 319, (1s,4s)-4-((5-(1-(Difluoromethyl)-1H-pyrazol-3-yl)-2-((2-(5-fluoro-1,3-dimethyl-1H-pyrazol-4-yl)pyrimidin-4-yl)amino)pyridin-4-yl)amino)-1-methylcyclohexan-1-ol]
8 | 0.3 | 0.3 | 7.7 | 5 | 38.9 | 0.4 | 2.7 | 4.5 | 80.1 | > 10000 | – | – | – | – | – | – | – | – | – | – | O=S(=O)(C1CC1)n1cc(-c2nccc(Nc3cc(OC4CCC(O)CC4)c(-c4ccn(C(F)F)n4)cn3)n2)cn1 (centres unmarked) [Example 66, 4-((2-((2-(1-(Cyclopropylsulfonyl)-1H-pyrazol-4-yl)pyrimidin-4-yl)amino)-5-(1-(difluoromethyl)-1H-pyrazol-3-yl)pyridin-4-yl)oxy)cyclohexan-1-ol]
9 | 0.5 | 0.1 | 5.5 | 2.2 | 12.1 | 0.3 | 0.2 | 16.8 | 53.6 | > 10000 | – | – | – | – | – | – | – | – | – | – | CN(C)S(=O)(=O)n1cc(-c2nccc(Nc3cc(N[C@H]4CC[C@@](C)(O)CC4)c(-c4ccn(C(F)F)n4)cn3)n2)cn1 [Example 317, 4-(4-((5-(1-(Difluoromethyl)-1H-pyrazol-3-yl)-4-(((1s,4s)-4-hydroxy-4-methylcyclohexyl)amino)pyridin-2-yl)amino)pyrimidin-2-yl)-N,N-dimethyl-1H-pyrazole-1-sulfonamide]
10 | 0.1 | 0.1 | 0.5 | 0.3 | 1.6 | 0.2 | 0.5 | 0.7 | 3.9 | 582 | – | – | – | – | – | – | – | – | – | – | O=S(=O)(C1CC1)n1cc(-c2nccc(Nc3cc(N[C@H]4CC[C@@H](CO)CC4)c(-c4ccn(C5CC5)n4)cn3)n2)cn1 [Example 297, ((1s,4s)-4-((5-(1-Cyclopropyl-1H-pyrazol-3-yl)-2-((2-(1-(cyclopropylsulfonyl)-1H-pyrazol-4-yl)pyrimidin-4-yl)amino)pyridin-4-yl)amino)cyclohexyl)methanol]
11 | 0.3 | 0.2 | 128 | 16.2 | 377 | – | – | – | – | – | – | – | – | – | – | – | – | – | – | – | C[C@]1(O)CC[C@@H](Nc2cc(Nc3ccnc(-c4cnc5c(c4)NCCO5)n3)ncc2-c2ccn(C(F)F)n2)CC1 [Example 154, (1s,4s)-4-((5-(1-(Difluoromethyl)-1H-pyrazol-3-yl)-2-((2-(2,3-dihydro-1H-pyrido[2,3-b][1,4]oxazin-7-yl)pyrimidin-4-yl)amino)pyridin-4-yl)amino)-1-methylcyclohexan-1-ol]
12 | 0.4 | 0.1 | 0.5 | 0.4 | 6.1 | 0.4 | 0.6 | 0.5 | 15.1 | > 10000 | – | – | – | – | – | – | – | – | – | – | O=S(=O)(C1CC1)n1cc(-c2nccc(Nc3cc(NC[C@H]4CC[C@@H](O)C4)c(-c4ccn(C(F)F)n4)cn3)n2)cn1 [Example 119, (1R,3S)-3-(((2-((2-(1-(Cyclopropylsulfonyl)-1H-pyrazol-4-yl)pyrimidin-4-yl)amino)-5-(1-(difluoromethyl)-1H-pyrazol-3-yl)pyridin-4-yl)amino)methyl)cyclopentan-1-ol]
13 | 0.5 | 0.3 | 0.6 | 0.6 | 4.9 | 0.3 | 0.4 | 1 | 14.2 | 4690 | – | – | – | – | – | – | – | – | – | – | CN(C)CCCn1ccc(-c2cnc(Nc3ccnc(-c4cnn(S(=O)(=O)C5CC5)c4)n3)cc2NCC2(CO)COC2)n1 [Example 279, (3-(((2-((2-(1-(Cyclopropylsulfonyl)-1H-pyrazol-4-yl)pyrimidin-4-yl)amino)-5-(1-(3-(dimethylamino)propyl)-1H-pyrazol-3-yl)pyridin-4-yl)amino)methyl)oxetan-3-yl)methanol]
14 | 0.4 | 0.2 | 0.4 | 0.4 | 1.8 | 0.6 | 0.5 | 0.6 | 4.7 | 2940 | – | – | – | – | – | – | – | – | – | – | O=S(=O)(C1CC1)n1cc(-c2nccc(Nc3cc(N[C@H]4CC[C@](O)(CO)CC4)c(-c4cc5n(n4)CCCC5)cn3)n2)cn1 [Example 275, (1s,4s)-4-((2-((2-(1-(Cyclopropylsulfonyl)-1H-pyrazol-4-yl)pyrimidin-4-yl)amino)-5-(4,5,6,7-tetrahydropyrazolo[1,5-a]pyridin-2-yl)pyridin-4-yl)amino)-1-(hydroxymethyl)cyclohexan-1-ol]
